Data on 3 compounds can be found in US20150173847A1, “IMAGING MARKER AND UTILIZATION THEREOF” (priority 2012, published 2015).

Where “and” joins values, the source holds several entries; their conditions need not be identical. Equal entries are not always repeated. Where two headings read alike, the source gives them in different places. Where only a bound is given, the exact number is not on record here.

The nature of series [1]: T1 and T2 relaxivity measurement by spin echo MRI at varying concentrations. It counts as physicochemical.
Series [2] can be described thus: Density of the aqueous solutions calculated from the weight of 2 mL in a tube. It counts as physicochemical.
For series [3] the following is noted: as in the Examples.
The conditions of series [4]: at 20 to 25° C., cited from earlier work.
The mark [5] stands for this setting: aqueous solution, spin echo, 22° C.
Where [6] appears, read: aqueous solution that exhibited maximum MRI contrast.

Regarding `O=S(=O)([O-])[O-].[Cu+2]` [Cu (CuSO4), Copper sulfate], the “r1 (T1 relaxivity)” value in series [1] was 0.63 and 0.63 mM−1 · sec^−1. In series [2], the Density is 1.0 g/mL and the density of solution result was “about 1 g/mL”.
With `CNC[C@H](O)[C@@H](O)[C@H](O)[C@H](O)CO.CNC[C@H](O)[C@@H](O)[C@H](O)[C@H](O)CO.O=C([O-])CN(CCN(CC(=O)[O-])CC(=O)O)CCN(CC(=O)[O-])CC(=O)O.[Gd+3]` [Gd (Gd-DTPA), meglumine gadopentetate], in series [1] (setting [5]), the “r1 (T1 relaxivity)” value stood at 4.2 mM⁻¹ s⁻¹. In addition, the Density in series [2] (setting [6]) is recorded as 1.0 g/mL. Moreover, the density of solution entry in series [2] (no matter what concentration the solution may have) is on record as “about 1 g/mL”.
Compound `O.[Na+].[Na+].[Na+].[Na+].[Na+].[Na+].[O]=[W](=[O])([O-])[O-].[O]=[W](=[O])([O-])[O-].[O]=[W](=[O])([O-])[O-].[O]=[W](=[O])=[O].[O]=[W](=[O])=[O].[O]=[W](=[O])=[O].[O]=[W](=[O])=[O].[O]=[W](=[O])=[O].[O]=[W](=[O])=[O].[O]=[W](=[O])=[O].[O]=[W](=[O])=[O].[O]=[W](=[O])=[O]` [W (SPT), Sodium polytungstate] showed a water solubility in series [3] above 1000 mg/mL. Also, the “maximum density of aqueous solution” value in series [4] (listed as sodium polytungstate (SPT)) is listed as “at most 3.08 g/mL”; in series [4], 3.08 g/mL. For the same compound, the “r1 (T1 relaxivity)” value was 0.00036 mM⁻¹ s⁻¹ in series [1] (setting [5]) and 0.00036 mM⁻¹ s⁻¹ in series [1] (aqueous solution, spin echo, 22° C., listed as SPT). In addition, in series [2] (setting [6]), the Density was 3.0 g/mL.
